# Assay results from ChEMBL document CHEMBL3044826, “Design, synthesis and biological evaluation of some novel substituted 2-mercapto-3-phenethylquinazolines as antitumor agents” (2013).
# Assays:
# Type in all cases: functional
# [1] = test system: HT-29; experiment: Cytotoxicity against Homo sapiens (human) HT-29 cells assessed as growth inhibition at 10 uM after 48 hr by coulter counter analysis; settings: HT-29, 48 h, read-out: GI
# [2] = test system: SF-268; experiment: Cytotoxicity against Homo sapiens (human) SF268 cells assessed as growth inhibition at 10 uM after 48 hr by coulter counter analysis; settings: SF-268, 48 h, read-out: GI
# [3] = test system: SK-OV-3; experiment: Cytotoxicity against Homo sapiens (human) SKOV3 cells assessed as growth inhibition at 10 uM after 48 hr by coulter counter analysis; settings: SK-OV-3, 48 h, read-out: GI
# [4] = test system: OVCAR-4; experiment: Cytotoxicity against Homo sapiens (human) OVCAR4 cells assessed as growth inhibition at 10 uM after 48 hr by coulter counter analysis; settings: OVCAR-4, 48 h, read-out: GI
# [5] = test system: UACC-62; experiment: Cytotoxicity against Homo sapiens (human) UACC62 cells assessed as growth inhibition at 10 uM after 48 hr by coulter counter analysis; settings: UACC-62, 48 h, read-out: GI
# [6] = test system: SNB-19; experiment: Cytotoxicity against Homo sapiens (human) SNB19 cells assessed as growth inhibition at 10 uM after 48 hr by coulter counter analysis; settings: SNB-19, 48 h, read-out: GI
# [7] = test system: HCT-116; experiment: Cytotoxicity against Homo sapiens (human) HCT116 cells assessed as growth inhibition at 10 uM after 48 hr by coulter counter analysis; settings: HCT-116, 48 h, read-out: GI
# [8] = test system: COLO 205; experiment: Cytotoxicity against Homo sapiens (human) COLO205 cells assessed as growth inhibition at 10 uM after 48 hr by coulter counter analysis; settings: COLO 205, 48 h, read-out: GI
# [9] = test system: Malme-3M; experiment: Cytotoxicity against Homo sapiens (human) MALME-3M cells assessed as growth inhibition at 10 uM after 48 hr by coulter counter analysis; settings: read-out: GI
# [10] = test system: CAKI-1; experiment: Cytotoxicity against Homo sapiens (human) Caki1 cells assessed as growth inhibition at 10 uM after 48 hr by coulter counter analysis; settings: CAKI-1, 48 h, read-out: GI
# [11] = test system: SNB-75; experiment: Cytotoxicity against Homo sapiens (human) SNB75 cells assessed as growth inhibition at 10 uM after 48 hr by coulter counter analysis; settings: SNB-75, 48 h, read-out: GI
# [12] = test system: EKVX; experiment: Cytotoxicity against Homo sapiens (human) EKVX cells assessed as growth inhibition at 10 uM after 48 hr by coulter counter analysis; settings: read-out: GI
# [13] = test system: UO-31; experiment: Cytotoxicity against Homo sapiens (human) UO31 cells assessed as growth inhibition at 10 uM after 48 hr by coulter counter analysis; settings: UO-31, 48 h, read-out: GI
# [14] = test system: HCC 2998; experiment: Cytotoxicity against Homo sapiens (human) HCC2998 cells assessed as growth inhibition at 10 uM after 48 hr by coulter counter analysis; settings: HCC 2998, 48 h, read-out: GI
# [15] = test system: PC-3; experiment: Cytotoxicity against Homo sapiens (human) PC3 cells assessed as growth inhibition at 10 uM after 48 hr by coulter counter analysis; settings: PC-3, 48 h, read-out: GI
# [16] = test system: DU-145; experiment: Cytotoxicity against Homo sapiens (human) DU145 cells assessed as growth inhibition at 10 uM after 48 hr by coulter counter analysis; settings: DU-145, 48 h, read-out: GI
# [17] = test system: SN12C; experiment: Cytotoxicity against Homo sapiens (human) SN12C cells assessed as growth inhibition at 10 uM after 48 hr by coulter counter analysis; settings: read-out: GI
# [18] = test system: OVCAR-3; experiment: Cytotoxicity against Homo sapiens (human) OVCAR3 cells assessed as growth inhibition at 10 uM after 48 hr by coulter counter analysis; settings: OVCAR-3, 48 h, read-out: GI
# [19] = test system: A549; experiment: Cytotoxicity against Homo sapiens (human) A549 cells assessed as growth inhibition at 10 uM after 48 hr by coulter counter analysis; settings: A549, 48 h, read-out: GI
# [20] = test system: SW-620; experiment: Cytotoxicity against Homo sapiens (human) SW620 cells assessed as growth inhibition at 10 uM after 48 hr by coulter counter analysis; settings: SW-620, 48 h, read-out: GI
# [21] = test system: MDA-MB-468; experiment: Cytotoxicity against Homo sapiens (human) MDA-MB-468 cells assessed as growth inhibition at 10 uM after 48 hr by coulter counter analysis; settings: MDA-MB-468, 48 h, read-out: GI
# [22] = test system: NCI-H23; experiment: Cytotoxicity against Homo sapiens (human) NCI-H23 cells assessed as growth inhibition at 10 uM after 48 hr by coulter counter analysis; settings: NCI-H23, 48 h, read-out: GI
# [23] = Cytotoxicity against Homo sapiens (human) NCI-ADR-RES cells assessed as growth inhibition at 10 uM after 48 hr by coulter counter analysis; settings: read-out: GI
# [24] = test system: TK-10; experiment: Cytotoxicity against Homo sapiens (human) TK10 cells assessed as growth inhibition at 10 uM after 48 hr by coulter counter analysis; settings: TK-10, 48 h, read-out: GI
# [25] = test system: SF-295; experiment: Cytotoxicity against Homo sapiens (human) SF295 cells assessed as growth inhibition at 10 uM after 48 hr by coulter counter analysis; settings: SF-295, 48 h, read-out: GI
# [26] = test system: LOX IMVI; experiment: Cytotoxicity against Homo sapiens (human) LOXIMVI cells assessed as growth inhibition at 10 uM after 48 hr by coulter counter analysis; settings: read-out: GI
# [27] = test system: SF-539; experiment: Cytotoxicity against Homo sapiens (human) SF539 cells assessed as growth inhibition at 10 uM after 48 hr by coulter counter analysis; settings: SF-539, 48 h, read-out: GI
# [28] = test system: OVCAR-8; experiment: Cytotoxicity against Homo sapiens (human) OVCAR8 cells assessed as growth inhibition at 10 uM after 48 hr by coulter counter analysis; settings: OVCAR-8, 48 h, read-out: GI
# [29] = test system: KM12; experiment: Cytotoxicity against Homo sapiens (human) KM12 cells assessed as growth inhibition at 10 uM after 48 hr by coulter counter analysis; settings: KM12, 48 h, read-out: GI
# [30] = test system: M14; experiment: Cytotoxicity against Homo sapiens (human) M14 cells assessed as growth inhibition at 10 uM after 48 hr by coulter counter analysis; settings: M14, 48 h, read-out: GI
# [31] = test system: A498; experiment: Cytotoxicity against Homo sapiens (human) A498 cells assessed as growth inhibition at 10 uM after 48 hr by coulter counter analysis; settings: A498, 48 h, read-out: GI
# [32] = test system: HOP-62; experiment: Cytotoxicity against Homo sapiens (human) HOP62 cells assessed as growth inhibition at 10 uM after 48 hr by coulter counter analysis; settings: HOP-62, 48 h, read-out: GI
# [33] = test system: SK-MEL-5; experiment: Cytotoxicity against Homo sapiens (human) SK-MEL-5 cells assessed as growth inhibition at 10 uM after 48 hr by coulter counter analysis; settings: SK-MEL-5, 48 h, read-out: GI
# [34] = test system: BT-549; experiment: Cytotoxicity against Homo sapiens (human) BT549 cells assessed as growth inhibition at 10 uM after 48 hr by coulter counter analysis; settings: BT-549, 48 h, read-out: GI
Structure (SMILES),inhibition of growth at 10 µM [1],inhibition of growth at 10 µM [2],inhibition of growth at 10 µM [3],inhibition of growth at 10 µM [4],inhibition of growth at 10 µM [5],inhibition of growth at 10 µM [6],inhibition of growth at 10 µM [7],inhibition of growth at 10 µM [8],inhibition of growth at 10 µM [9],inhibition of growth at 10 µM [10],inhibition of growth at 10 µM [11],inhibition of growth at 10 µM [12],inhibition of growth at 10 µM [13],inhibition of growth at 10 µM [14],inhibition of growth at 10 µM [15],inhibition of growth at 10 µM [16],inhibition of growth at 10 µM [17],inhibition of growth at 10 µM [18],inhibition of growth at 10 µM [19],inhibition of growth at 10 µM [20],further results
CCn1c(S)nnc1CSc1nc2ccccc2c(=O)n1CCc1ccccc1,< 10%,< 10%,< 10%,15%,15%,< 10%,35%,< 10%,< 10%,< 10%,< 10%,15%,24%,< 10%,17%,< 10%,< 10%,< 10%,16%,< 10%,inhibition of growth at 10 µM [21]: 15%; inhibition of growth at 10 µM [22]: < 10%; inhibition of growth at 10 µM [23]: 27%; inhibition of growth at 10 µM [24]: < 10%; inhibition of growth at 10 µM [25]: < 10%; inhibition of growth at 10 µM [26]: 26%; inhibition of growth at 10 µM [27]: < 10%; inhibition of growth at 10 µM [28]: 11%; inhibition of growth at 10 µM [29]: < 10%; inhibition of growth at 10 µM [30]: 12%; inhibition of growth at 10 µM [31]: < 10%; inhibition of growth at 10 µM [32]: 22%; inhibition of growth at 10 µM [33]: 18%; inhibition of growth at 10 µM [34]: 28%
O=c1c2ccccc2nc(SCCN2CCCCC2)n1CCc1ccccc1,70%,< 10%,< 10%,14%,< 10%,< 10%,27%,25%,< 10%,27%,13%,30%,43%,< 10%,< 10%,11%,< 10%,< 10%,13%,11%,inhibition of growth at 10 µM [21]: < 10%; inhibition of growth at 10 µM [22]: 23%; inhibition of growth at 10 µM [23]: 13%; inhibition of growth at 10 µM [24]: < 10%; inhibition of growth at 10 µM [25]: 13%; inhibition of growth at 10 µM [26]: 19%; inhibition of growth at 10 µM [27]: < 10%; inhibition of growth at 10 µM [28]: < 10%; inhibition of growth at 10 µM [29]: < 10%; inhibition of growth at 10 µM [30]: < 10%; inhibition of growth at 10 µM [31]: 17%; inhibition of growth at 10 µM [32]: 11%; inhibition of growth at 10 µM [33]: 24%; inhibition of growth at 10 µM [34]: 14%
